One experiment has as its system CD36. The experiment is described as follows: CD36 protein expression by western blot in mouse peritoneal macrophages. The format is cell-based. The following applies: P<0.01. From the text: Other controls included CD36 expression from mouse heart (H) and macrophages obtained from CD36 knockout mice (KO). The amount of CD36 protein was normalized to β-actin.
In general terms: In western blotting, separated proteins are transferred to a membrane and probed.

For experiment [1], the system named is mouse peritoneal macrophages. The experiment is described as follows: oxLDL-induced foam cell formation (oil red O) in macrophages. The following applies: SS-31 1 μM, oxLDL 48 h. The format is cell-based. From the text: Foam cell is indicated by oil red O which stains lipid droplets red.
Experiment [2] concerns mouse peritoneal macrophages. The experiment is described as follows: oxLDL-induced apoptosis of macrophages. The format is cell-based. The settings on record: SS-31 1 nM concurrent with oxLDL (oxLDL alone 32.8%, no oxLDL 6.7%). The method, then:
Incubation of macrophages with oxLDL increased apoptotic cells from 6.7% to 32.8%.

The test system of experiment [3] is wild-type mice subjected to acute cerebral ischemia. The experiment is described as follows: Acute cerebral ischemia (30 min middle cerebral artery occlusion) in wild-type mice. The format is in vivo, mouse. The settings on record: WT mice. The protocol:
Cerebral ischemia was induced by occlusion of the right middle cerebral artery for 30 min. Wild-type (WT) mice were given either saline vehicle (Veh) (ip, n=19) or SS-31 (2 mg/kg or 5 mg/kg, ip, n=6) at 0, 6, 24 and 48 h after ischemia. Mice were killed 3 days after ischemia. Brains were removed, frozen, and sectioned. Brain sections were stained by the Nissl stain. Infarct volume and hemispheric swelling was determined using an image analyzer. Data were analyzed by one-way ANOVA with posthoc analysis.
(*P<0.05 compared to Veh).

The test system of experiment [4] is CD36 knock-out mice subjected to acute cerebral ischemia. The experiment is described as follows: Acute cerebral ischemia in CD36 knockout mice. The format is in vivo, mouse. The following applies: CD36 KO mice. The method, then:
CD36 knockout (CD36 KO) mice were subjected to acute cerebral ischemia as described under Example 2. CD36 KO mice were given either saline vehicle (Veh) (ip, n=5) or SS-31 (2 mg/kg, i.p. n=5) at 0, 6, 24 and 48 h after 30 min ischemia.

Experiment [5] has as its system isolated guinea pig hearts. The experiment is described as follows: Isolated hearts: lipid peroxidation, endothelial apoptosis and coronary flow after cold ischemia and warm reperfusion. The following applies: 1 nM SS-31 or 100 nM SS-20 in St. Thomas solution. The method, then: Guinea pig hearts were perfused with a cardioplegic solution (St. Thomas solution) alone or St. Thomas solution containing either 1 nM SS-31 or 100 nM SS-20 for 3 min. and then subjected to 18 hours of cold ischemia (4° C.). The hearts were then reperfused with Krebs Henseleit buffer at 34° C. for 90 min. Immunohistochemical analysis of 4-hydroxynonenol (HNE)-modified proteins in paraffin sections from tissue slices were performed by incubation with an anti-HNE antibody (Santa Cruz) and a fluorescent secondary antibody. […] HNE staining was reduced in hearts stored in SS-31 (FIG. 13C) or SS-20 (FIG. 13D).
Guinea pig heats were perfused with a cardioplegic solution (St. Thomas solution) alone or St. Thomas solution containing either 1 nM SS-31 or 100 nM SS-20 for 3 min. and then subjected to 18 hours of cold ischemia (4° C.). The hearts were then reperfused with Krebs Henseleit buffer at 34° C. for 90 min. After deparaffinization, sections were incubated with deoxynucleotidyl transferase (Tdt) with digoxigenin-dNTP for 1 hour. The reaction was stopped with terminating buffer. A fluorescent anti-digoxigenin antibody was then applied.
A significant improvement of coronary blood flow after prolonged cold ischemic storage and warm reperfusion occurred (FIG. 15). Guinea pigs hearts were perfused with a cardioplegic solution (St. Thomas solution) alone or St. Thomas solution containing either 1 nM SS-31 (FIG. 15A) or 100 nM SS-20) (FIG. 15B) for 3 min. and then subjected to 18 hours of cold ischemia (4° C.). The hearts were then reperfused with Krebs Henseleit buffer at 34° C. for 90 min.

The mark [6] stands for this setting: SS-31 2 mg/kg or 5 mg/kg ip at 0, 6, 24, 48 h after ischemia, vs saline, P<0.05.
Where [7] appears, read: SS-31 2 mg/kg ip at 0, 6, 24, 48 h, vs saline.
Where [8] appears, read: 18 h at 4° C., 90 min reperfusion.

“Also recorded” adds a separate entry of the source.

For the substance D-Arg-2′6′Dmt-Lys-Phe-NH2 [SS-31], the “oxLDL-induced upregulation of CD36 protein expression” value in the experiment on CD36 (SS-31 1 μM concurrent with 25 μg/ml oxLDL, 48 h) is reported as “significantly inhibited the upregulation of CD36 protein expression; also recorded: reduced”. In the experiment with CD36 (SS-31 1 μM, no oxLDL, normalized to β-actin), the “CD36 protein expression versus vehicle control” value is listed as “significantly reduced CD36 protein expression”. Further, the “oxLDL-induced foam cell formation” value in experiment [1] is reported as “prevented oxLDL-induced foam cell formation; also recorded: reduced”. Further, in experiment [2], the “percentage of apoptotic cells induced by oxLDL” value worked out at 20.8%. For the same substance, the “depletion of GSH in the striatum” value in experiment [3] (SS-31 2 mg/kg ip at 0, 6, 24, 48 h) is reported as “reduced by SS-31 treatment but did not reach statistical significance”. For the same substance, the “depletion of GSH in the ipsilateral cortex” value in experiment [3] (SS-31 2 mg/kg ip at 0, 6, 24, 48 h, 2 mg/kg) is reported as “significantly reduced; also recorded: reduced the decrease in reduced glutathione (GSH)”. In experiment [3] (setting [6]), the hemispheric swelling result was “significant reduction; also recorded: reduced” and the infarct volume entry is on record as “significant reduction in infarct volume; also recorded: reduced infarct volume”. Moreover, the “GSH depletion in the ipsilateral cortex” value in experiment [4] (SS-31 2 mg/kg ip) is on record as “failed to further prevent GSH depletion; also recorded: did not reduce GSH depletion”. Further, in experiment [4] (setting [7]), the hemispheric swelling entry is given as “no effect” and the infarct volume entry was “no effect in reducing infarct volume”. Also, in experiment [5] (setting [8]), the “HNE staining (lipid peroxidation) in stored hearts” value is given as “reduced” and the “endothelial apoptosis in stored hearts” value is “Apoptotic cells were not observed”. In addition, the “coronary flow restored, of pre-ischemic flow” value in experiment [5] (18 h at 4° C., 90 min reperfusion, pre-ischemic control = 100%) was “approximately 80%”. For the same substance, the “coronary flow (in words)” value in experiment [5] (18 h cold ischemia, warm reperfusion) is on record as “preserves coronary flow”.

These data come from patent publication US11447523B2, “Methods for reducing CD36 expression” (Cornell Research Foundation, Inc., priority 2005, dated 2022).
